The assay in a line: Binding affinity against metallo-beta-lactamase bacillus cereus(BCII).

The values below come from BindingDB's records for doi:10.1016/j.bmcl.2004.01.047 (University of Huddersfield, 2004).

The Ki is the equilibrium dissociation constant of an inhibitor or competing ligand from its target. Higher therefore signals lower affinity.

In the case of `CC1CS[C@H](c2nc(O)c(-c3ccccc3)[nH]c2=S)NC1C(=O)O` (stereo partly drawn) [(R)-5-Methyl-2-(6-oxo-5-phenyl-3-thioxo-piperazin-2-yl)-3,6-dihydro-2H-[1,3]thiazine-4-carboxylic acid anion], affinity was put at a Ki of 29 µM.
